Experimental data as given in ChEMBL document CHEMBL1667751, “Synthesis and antimicrobial activity of highly functionalised novel β-lactam grafted spiropyrrolidines and pyrrolizidines” (2011).

Tests used:
Staphylococcus aureus [1] = test: Antibacterial activity against Staphylococcus aureus at 75 ug/ml after 24 hrs agar diffusion method; type: functional; conditions: read-out: DIZ
Proteus mirabilis [2] = test: Antibacterial activity against Proteus mirabilis at 50 ug/ml after 24 hrs agar diffusion method; type: functional; conditions: read-out: DIZ
Salmonella typhi [3] = test: Antibacterial activity against Salmonella typhi at 50 ug/ml after 24 hrs agar diffusion method; type: functional, Salmonella enterica subsp. enterica serovar Typhi; conditions: Salmonella enterica, read-out: DIZ
Proteus vulgaris [4] = test: Antibacterial activity against Proteus vulgaris at 75 ug/ml after 24 hrs agar diffusion method; type: functional; conditions: read-out: DIZ
Proteus mirabilis [5] = test: Antibacterial activity against Proteus mirabilis at 25 ug/ml after 24 hrs agar diffusion method; type: functional; conditions: read-out: DIZ
Proteus vulgaris [6] = test: Antibacterial activity against Proteus vulgaris at 25 ug/ml after 24 hrs agar diffusion method; type: functional; conditions: read-out: DIZ
Proteus mirabilis [7] = test: Antibacterial activity against Proteus mirabilis at 100 ug/ml after 24 hrs agar diffusion method; type: functional; conditions: read-out: DIZ
Salmonella typhi [8] = test: Antibacterial activity against Salmonella typhi at 100 ug/ml after 24 hrs agar diffusion method; type: functional, Salmonella enterica subsp. enterica serovar Typhi; conditions: Salmonella enterica, read-out: DIZ
Salmonella typhi [9] = test: Antibacterial activity against Salmonella typhi at 75 ug/ml after 24 hrs agar diffusion method; type: functional, Salmonella enterica subsp. enterica serovar Typhi; conditions: Salmonella enterica, read-out: DIZ
Proteus vulgaris [10] = test: Antibacterial activity against Proteus vulgaris at 50 ug/ml after 24 hrs agar diffusion method; type: functional; conditions: read-out: DIZ
Proteus vulgaris [11] = test: Antibacterial activity against Proteus vulgaris at 100 ug/ml after 24 hrs agar diffusion method; type: functional; conditions: read-out: DIZ
Salmonella typhi [12] = test: Antibacterial activity against Salmonella typhi at 25 ug/ml after 24 hrs agar diffusion method; type: functional, Salmonella enterica subsp. enterica serovar Typhi; conditions: Salmonella enterica, read-out: DIZ
Staphylococcus aureus [13] = test: Antibacterial activity against Staphylococcus aureus at 100 ug/ml after 24 hrs agar diffusion method; type: functional; conditions: read-out: DIZ
Proteus mirabilis [14] = test: Antibacterial activity against Proteus mirabilis at 75 ug/ml after 24 hrs agar diffusion method; type: functional; conditions: read-out: DIZ
Staphylococcus aureus [15] = test: Antibacterial activity against Staphylococcus aureus at 25 ug/ml after 24 hrs agar diffusion method; type: functional; conditions: read-out: DIZ
Staphylococcus aureus [16] = test: Antibacterial activity against Staphylococcus aureus at 50 ug/ml after 24 hrs agar diffusion method; type: functional; conditions: read-out: DIZ

SMILES | zone of inhibition at 75 µg/mL (Staphylococcus aureus [1]) [mm] | zone of inhibition at 50 µg/mL (Proteus mirabilis [2]) [mm] | zone of inhibition at 50 µg/mL (Salmonella typhi [3]) [mm] | zone of inhibition at 75 µg/mL (Proteus vulgaris [4]) [mm] | zone of inhibition at 25 µg/mL (Proteus mirabilis [5]) [mm] | zone of inhibition at 25 µg/mL (Proteus vulgaris [6]) [mm] | zone of inhibition at 100 µg/mL (Proteus mirabilis [7]) [mm] | zone of inhibition at 100 µg/mL (Salmonella typhi [8]) [mm] | zone of inhibition at 75 µg/mL (Salmonella typhi [9]) [mm] | zone of inhibition at 50 µg/mL (Proteus vulgaris [10]) [mm] | zone of inhibition at 100 µg/mL (Proteus vulgaris [11]) [mm] | zone of inhibition at 25 µg/mL (Salmonella typhi [12]) [mm] | zone of inhibition at 100 µg/mL (Staphylococcus aureus [13]) [mm] | zone of inhibition at 75 µg/mL (Proteus mirabilis [14]) [mm] | zone of inhibition at 25 µg/mL (Staphylococcus aureus [15]) [mm] | zone of inhibition at 50 µg/mL (Staphylococcus aureus [16]) [mm]
CCOC(=O)[C@@H]1[C@@H]([C@H]2[C@@H](Oc3ccccc3)C(=O)N2c2ccc(OC)cc2)CN(C)C12C(=O)c1ccccc1C2=O | 16 | 13 | 11 | 20 | 9 | 12 | 18 | 19 | 13 | 16 | 23 | 9 | 18 | 16 | 11 | 13
CCOC(=O)[C@@H]1[C@@H]([C@H]2[C@@H](c3ccccc3)C(=O)N2c2ccc(OC)cc2)C2CCCN2[C@@]12C(=O)c1cccc3cccc2c13 (some centres not stated) | 19 | 11 |  | 17 | 9 |  | 18 |  |  | 12 | 20 |  | 21 | 14 | 9 | 14
CCOC(=O)[C@@H]1[C@@H]([C@H]2[C@@H](Oc3ccccc3)C(=O)N2c2ccc(OC)cc2)C2CCCN2[C@@]12C(=O)c1cccc3cccc2c13 (some centres not stated) | 14 | 13 |  | 16 | 10 | 9 | 20 |  |  | 11 | 20 |  | 18 | 16 |  | 11
CCOC(=O)[C@@H]1[C@@H]([C@H]2[C@@H](Oc3ccccc3)C(=O)N2c2ccc(OC)cc2)CN(C)[C@@]12C(=O)c1cccc3cccc2c13 | 15 | 11 | 11 | 15 | 9 | 9 | 20 | 16 | 14 | 11 | 20 | 9 | 19 | 15 |  | 9
CCOC(=O)[C@@H]1[C@@H]([C@H]2[C@@H](c3ccccc3)C(=O)N2c2ccc(OC)cc2)C2CCCN2C12C(=O)c1ccccc1C2=O (some centres not stated) | 16 | 15 | 12 | 20 | 10 | 12 | 23 | 20 | 14 | 17 | 24 | 9 | 28 | 16 | 9 | 13
CCOC(=O)[C@@H]1[C@@H]([C@H]2[C@@H](Oc3ccccc3)C(=O)N2c2ccc(OC)cc2)CN(C)[C@]12C(=O)Nc1ccccc12 | 21 | 13 | 14 | 18 | 12 | 11 | 32 | 28 | 20 | 14 | 21 | 11 | 26 | 22 | 14 | 19
CN(C)[C@@H]1C(O)=C(C(N)=O)C(=O)[C@@]2(O)C(O)=C3C(=O)c4c(O)cccc4[C@@](C)(O)[C@H]3C[C@@H]12 [TETRACYCLINE] | 28 | 24 | 22 | 28 | 18 | 18 | > 40 | > 40 | 28 | 24 | > 40 | 18 | > 40 | 28 | 18 | 22
CCOC(=O)[C@@H]1[C@@H]([C@H]2[C@@H](c3ccccc3)C(=O)N2c2ccc(OC)cc2)CN(C)C12C(=O)c1ccccc1C2=O | 18 | 13 | 9 | 18 | 11 | 11 | 18 | 18 | 13 | 14 | 21 |  | 22 | 14 | 11 | 15
CCOC(=O)[C@@H]1[C@@H]([C@H]2[C@@H](c3ccccc3)C(=O)N2c2ccc(OC)cc2)CN(C)[C@]12C(=O)Nc1ccccc12 | 23 | 14 | 15 | 16 | 11 | 11 | 21 | 29 | 21 | 14 | 20 | 12 | 27 | 18 | 14 | 18
CCOC(=O)[C@@H]1[C@@H]([C@H]2[C@@H](Oc3ccccc3)C(=O)N2c2ccc(OC)cc2)C2CCCN2C12C(=O)c1ccccc1C2=O (some centres not stated) | 18 | 15 | 15 | 23 | 8 | 9 | 22 | 23 | 17 | 18 | 26 | 11 | 24 | 18 | 9 | 14
CCOC(=O)[C@@H]1[C@@H]([C@H]2[C@@H](c3ccccc3)C(=O)N2c2ccc(OC)cc2)C2CCCN2[C@]12C(=O)Nc1ccccc12 (some centres not stated) | 21 | 18 | 14 | 25 | 14 | 13 | 32 | 26 | 18 | 21 | > 40 | 11 | 31 | 21 | 9 | 16
CCOC(=O)[C@@H]1[C@@H]([C@H]2[C@@H](c3ccccc3)C(=O)N2c2ccc(OC)cc2)CN(C)[C@@]12C(=O)c1cccc3cccc2c13 | 15 | 9 | 11 | 15 |  |  | 18 | 18 | 13 | 10 | 21 |  | 21 | 13 |  | 10
CCOC(=O)[C@@H]1[C@@H]([C@H]2[C@@H](Oc3ccccc3)C(=O)N2c2ccc(OC)cc2)C2CCCN2[C@]12C(=O)Nc1ccccc12 (some centres not stated) | 22 | 16 | 16 | 27 | 12 | 19 | 36 | 31 | 21 | 20 | > 40 | 13 | 34 | 24 | 14 | 18
